The results in this text go back to US11040981B2, “Pyrrolotriazine compounds and methods of inhibiting TAM kinases” (Syros Pharmaceuticals, Inc., priority 2017, dated 2021).

For one assay, the target named is T1, AXL (Homo sapiens, UniProt P30530).
T1 sequence (P30530 26-894): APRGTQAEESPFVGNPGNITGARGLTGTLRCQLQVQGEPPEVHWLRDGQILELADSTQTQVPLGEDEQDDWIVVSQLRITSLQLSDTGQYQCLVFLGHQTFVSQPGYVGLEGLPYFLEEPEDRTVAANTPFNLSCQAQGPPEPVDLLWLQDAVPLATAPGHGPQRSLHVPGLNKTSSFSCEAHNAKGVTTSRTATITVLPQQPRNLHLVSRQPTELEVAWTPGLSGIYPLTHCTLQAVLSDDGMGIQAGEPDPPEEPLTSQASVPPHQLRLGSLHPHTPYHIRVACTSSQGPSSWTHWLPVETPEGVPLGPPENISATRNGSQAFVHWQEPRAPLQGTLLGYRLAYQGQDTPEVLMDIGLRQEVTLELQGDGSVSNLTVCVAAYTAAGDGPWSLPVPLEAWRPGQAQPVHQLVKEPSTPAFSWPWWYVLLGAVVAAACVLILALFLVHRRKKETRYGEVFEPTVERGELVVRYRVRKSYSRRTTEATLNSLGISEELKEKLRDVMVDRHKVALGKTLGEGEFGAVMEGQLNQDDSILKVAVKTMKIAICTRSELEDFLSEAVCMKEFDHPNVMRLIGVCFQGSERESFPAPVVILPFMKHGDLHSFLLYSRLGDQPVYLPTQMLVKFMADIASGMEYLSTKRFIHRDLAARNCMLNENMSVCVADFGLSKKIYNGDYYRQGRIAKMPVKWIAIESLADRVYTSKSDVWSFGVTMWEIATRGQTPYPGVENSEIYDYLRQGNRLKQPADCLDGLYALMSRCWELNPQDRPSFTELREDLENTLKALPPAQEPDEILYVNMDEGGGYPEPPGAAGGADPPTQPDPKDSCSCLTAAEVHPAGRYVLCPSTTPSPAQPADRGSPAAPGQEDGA
The assay can be described thus: TR-FRET kinase activity assay, AXL. In kind it is biochemical. The conditions noted are these: ATP at Km, 60 minutes. The gist of the method: (§1)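 IC50 reflects the drop in TR-FRET between Eu anti-phosphotyrosine antibody and labelled peptide after a 60-minute room-temperature reaction. Buffer was 50 mM HEPES pH 7.5 with 10 mM MgCl2, 1 mM EGTA, 0.01% Brij 35 and 1 mM DTT, with ATP at Km per enzyme and EDTA quench.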

For another assay, the target named is T2, TYRO3 (Homo sapiens, UniProt Q06418).
T2 sequence (Q06418 41-890): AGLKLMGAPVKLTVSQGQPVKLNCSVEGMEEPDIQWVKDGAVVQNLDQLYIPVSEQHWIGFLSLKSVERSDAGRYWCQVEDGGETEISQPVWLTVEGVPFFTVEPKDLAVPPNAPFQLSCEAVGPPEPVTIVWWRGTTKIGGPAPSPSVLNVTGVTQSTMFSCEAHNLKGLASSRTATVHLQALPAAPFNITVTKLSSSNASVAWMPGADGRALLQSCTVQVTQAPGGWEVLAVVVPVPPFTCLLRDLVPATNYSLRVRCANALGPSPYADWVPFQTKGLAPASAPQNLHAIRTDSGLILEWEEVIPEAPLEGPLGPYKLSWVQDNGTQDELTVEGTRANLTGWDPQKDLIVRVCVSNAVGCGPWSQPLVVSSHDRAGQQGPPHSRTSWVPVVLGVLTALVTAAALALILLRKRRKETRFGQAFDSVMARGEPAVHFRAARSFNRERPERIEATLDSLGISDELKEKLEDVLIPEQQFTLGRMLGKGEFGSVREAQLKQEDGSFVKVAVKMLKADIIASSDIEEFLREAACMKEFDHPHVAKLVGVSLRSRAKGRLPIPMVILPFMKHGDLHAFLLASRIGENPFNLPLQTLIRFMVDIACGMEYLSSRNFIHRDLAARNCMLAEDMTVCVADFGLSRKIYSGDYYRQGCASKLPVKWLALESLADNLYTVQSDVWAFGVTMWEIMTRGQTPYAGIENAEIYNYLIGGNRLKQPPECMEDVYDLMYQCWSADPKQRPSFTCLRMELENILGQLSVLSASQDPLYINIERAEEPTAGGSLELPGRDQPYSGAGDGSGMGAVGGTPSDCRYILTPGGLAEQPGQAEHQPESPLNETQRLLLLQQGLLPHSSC
The assay can be described thus: TR-FRET kinase activity assay, TYRO3. The following applies: ATP at Km, 60 minutes. In kind it is biochemical. The gist of the method: as §1
Background: Time-resolved FRET reads energy transfer from a long-lived donor to a nearby acceptor.

The term IC50 denotes the concentration that gives 50% inhibition. Take `COCC(C)Nc1ncc2c(N3CCOCC3=O)cc(C3CCC(O)CC3)n2n1` (stereo not drawn) [Compound 192]: the IC50 against AXL and on TYRO3 was 1000 to 10000 nM each time.
`C[C@@H](COC(F)F)Nc1ncc2c(-c3ccc(CN4CCOCC4)cc3)cc([C@H]3CC[C@H](O)CC3)n2n1` [Compound 188]: the IC50 against AXL and on TYRO3 was no more than 100 nM throughout.
Consider `COC[C@H](C)Nc1ncc2c(-c3ccc(C(=O)N4CCOCC4)cc3)cc([C@H]3CC[C@H](O)CC3)n2n1` [Compound 187, (4-(7-((trans)-4-hydroxycyclohexyl)-2-(((S)-1-methoxypropan-2-yl)amino)pyrrolo[2,1-f][1,2,4]triazin-5-yl)phenyl)(morpholino)methanone], for which the IC50 on AXL and on TYRO3 was no more than 100 nM each time.
In the case of `COCC(C)Nc1ncc2c(C3CC4CCC(C3)N4C)cc(C3CCC(O)CC3)n2n1` (stereo not drawn) [Compound 191], the IC50 was 100 to 1000 nM at AXL and no more than 100 nM at TYRO3.
In the same order, the values of `Cc1cc(-c2cc(C3CCC(O)CC3)n3nc(NC(C)CC4CC4)ncc23)ccn1` (stereo not drawn) [Compound 190] are no more than 100 nM and no more than 100 nM.
On to `CCCCC[C@H](C)Nc1ncc2c(-c3ccc(S(=O)(=O)N4CCOCC4)cc3)cc([C@H]3CC[C@@H](O)CC3)n2n1` [Compound 103, (1R,4s)-4-(2-((S)-heptan-2-ylamino)-5-(4-(morpholinosulfonyl)phenyl)pyrrolo[2,1-f][1,2,4]triazin-7-yl)cyclohexanol], for which the IC50 against AXL and against TYRO3 was 100 to 1000 nM in each case.
With `COC[C@H](C)Nc1ncc2c(-c3cn(C)cn3)cc([C@H]3CC[C@H](O)CC3)n2n1` [Compound 186], the IC50 on AXL is 100 to 1000 nM; against TYRO3, no more than 100 nM.
`CC(CC1CC1)Nc1ncc2c(-c3ccc(CN4CCOCC4)cc3)cc(C3CCC(O)CC3)n2n1` (stereo not drawn) [Compound 189]: the IC50 on AXL and against TYRO3 was no more than 100 nM throughout.
Take `COCC(C)Nc1ncc2c(-c3ccc(C4(N5CCN(C)CC5)CC4)cc3)cc(C3CCC(O)CC3)n2n1` (stereo not drawn) [Compound 185]: the IC50 on AXL and against TYRO3 was no more than 100 nM each time.
